These results are taken from patent US8618355B2, “Aromatic prenyltransferase from hop” (priority 2008, dated 2013).

Like-named read-outs stand apart in the source and are kept apart here.

Assay [1] concerns the target T1, HIPT1 (Humulus lupulus, UniProt E5RP65, INS53SN/R152W). Kind of assay: Substrate specificity of HIPT1 prenyltransferase activity (14C-DMAPP, radioHPLC). Format: biochemical. Details: were designed to amplify the open reading frame (ORF) of the prenlyltransferase gene; N-terminal 6xHis and TEV site from the pFastBacHT C vector (own knowledge of the vector); made in house; host or cells: Spodoptera frugiperda (Sf9) insect cells, baculovirus (Bac-to-Bac); microsomal preparation, not purified. The conditions noted are these: aromatic acceptor substrates. As for the experimental part: Referring to FIG. 9A, prenyltransferase activity of HIPT1 on various substrates was measured using ^14C-DMAPP and thirteen aromatic acceptor substrates. Prenylated products were detected and quantified using radioHPLC. Error bars are SD (n=3). Referring to FIG. 9B, prenyltransferase activity of HIPT1 was measured with different prenyl diphosphate donors and the three major aromatic acceptor substrates, PIBP, PIVP and chalconaringenin. Prenylated products were quantified using HPLC with UV detection. Abbreviations: PIBP, phlorisobutyrophenone, PIVP, phlorisovalerophenone; DMAPP, dimethylallyl diphosphate; IPP, isopentenyl diphosphate; GPP, geranyl diphosphate; GGPP, geranylgeranyl diphosphate. Error bars are SD (n=3).

The target in assay [2] is T1, HIPT1. Kind of assay: HIPT1 enzyme assay with aromatic substrate and DMAPP, products analysed by HPLC and LC-MS. Format: biochemical. Further details: were designed to amplify the open reading frame (ORF) of the prenlyltransferase gene; N-terminal 6xHis and TEV site from the pFastBacHT C vector (own knowledge of the vector); made in house; host or cells: Spodoptera frugiperda (Sf9) insect cells, baculovirus (Bac-to-Bac); microsomal preparation, not purified. The conditions noted are these: 0.5 mM aromatic substrate, 0.5 mM DMAPP, 30° C., 120 min, pH 7.0. On the procedure: (§1) HIPT1 enzyme was assayed with phlorisobutyryphenone (PIBP), phlorisovalerophenone (PIVP) and chalconaringenin. Microsomal preparations from Example 2 were used in a 100 μl enzyme assay containing 100 mM Tris-HCl pH 7.0, 10 mM MgCl2, 0.5 mM aromatic substrate (PIBP, PIVP or chalconaringenin), 0.5 mM dimethylallyldiphosphate (DMAPP) and 20 μl of microsomes from insect cells expressing recombinant HIPT1. The assays were incubated at 30° C. for 120 min, the reactions stopped by addition of 5 μl 6N HCl, the reaction products extracted with 200 μl ethyl acetate and dried. The dried products were resuspended in 100 μl of methanol and analyzed by reversed-phase HPLC (solvent A: 0.1% TFA in water, solvent B: acetonitrile; 0-10 min, 40% B to 50% B; 10-20 min, 50% B to 100% B; flow rate 1 ml/min).
Abbreviations: PIBP is phlorisobutyrophenone, PIVP is phlorisovalerophenone, DMAPP is dimethylallyl diphosphate.

Assay [3] has as its target T1, HIPT1. Format: biochemical. Further details: were designed to amplify the open reading frame (ORF) of the prenlyltransferase gene; N-terminal 6xHis and TEV site from the pFastBacHT C vector (own knowledge of the vector); made in house; host or cells: Spodoptera frugiperda (Sf9) insect cells, baculovirus (Bac-to-Bac); microsomal preparation, not purified. The following applies: mean ± SD (n = 3), read-out: Km Substrate. As for the experimental part:
as §1

Assay [4] has as its target T1, HIPT1. The conditions noted are these: presence of EDTA.

T1 sequence (E5RP65 other isoform, or with tags, fused parts or gaps INS53SN/R152W): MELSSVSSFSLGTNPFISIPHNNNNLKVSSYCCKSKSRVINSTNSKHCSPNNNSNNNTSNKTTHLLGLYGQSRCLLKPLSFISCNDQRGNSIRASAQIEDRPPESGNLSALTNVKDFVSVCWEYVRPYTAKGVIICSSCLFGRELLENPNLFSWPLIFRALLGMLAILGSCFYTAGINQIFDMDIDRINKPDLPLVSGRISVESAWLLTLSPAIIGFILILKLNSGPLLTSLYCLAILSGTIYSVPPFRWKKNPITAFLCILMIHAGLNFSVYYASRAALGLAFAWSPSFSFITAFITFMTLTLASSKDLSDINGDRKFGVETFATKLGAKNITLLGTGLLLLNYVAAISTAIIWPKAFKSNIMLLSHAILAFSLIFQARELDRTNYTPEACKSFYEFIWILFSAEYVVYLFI

In the case of `CC(C)=CCc1c(O)cc(O)c(C(=O)C(C)C)c1O` [prenyl-PIBP], the “Acceptance as substrate of HIPT1” value at HIPT1 [1] was “does prenylate prenyl-PIBP to form diprenyl-PIBP”. A word on the Km: it is the concentration of substrate that gives half-maximal velocity. In the case of `O=C(/C=C/c1ccc(O)cc1)c1c(O)cc(O)cc1O` [Chalconaringenin, chalconaringenin], at HIPT1 [2], the “Prenylation by HIPT1 (product formed)” value is on record as “forming desmethylxanthohumol”. Besides, the Km on HIPT1 [3] (acceptor substrate) was 196 ± 24.8 µM. In the case of `O=C(O)CN(CCN(CC(=O)O)CC(=O)O)CC(=O)O` [EDTA], the “Effect on prenyltransferase activity of HIPT1” value at HIPT1 [4] was “completely inhibited”.

Regarding `Cc1cc(O)cc(O)c1` [orcinol], on HIPT1 [1], the “Acceptance as substrate of HIPT1” value was “can accept”. `CC(C)CC(=O)c1c(O)cc(O)cc1O` [PIVP, phlorisovalerophenone]: the “Prenylation by HIPT1 (product formed)” value at HIPT1 [2] is “forming prenyl PIVP”. Further, the Km at HIPT1 [3] (acceptor substrate) amounted to 4.95 ± 0.25 µM. Consider `CC(C)C(=O)c1c(O)cc(O)cc1O` [PIBP, phlorisobutyryphenone], for which the “Prenylation by HIPT1 (product formed)” value on HIPT1 [2] is on record as “forming prenyl PIBP”. Further, the Km at HIPT1 [3] (acceptor substrate) was determined as 10.2 ± 0.55 µM.

As for `CC(C)=CCOP(=O)(O)OP(=O)(O)O` [DMAPP, dimethylallyldiphosphate], at HIPT1 [3] (prenyl donor, determined with PIVP as acceptor substrate), the Km came out at 16.8 ± 2.35 µM.

Take `O=C(/C=C/c1ccc(O)cc1)c1ccc(O)cc1O` [isoliquiritigenin]: the “Acceptance as substrate of HIPT1” value at HIPT1 [1] was “can accept”.

As for `Oc1ccc(C=Cc2cc(O)cc(O)c2)cc1` [resveratrol], the “Acceptance as substrate of HIPT1” value at HIPT1 [1] is listed as “can accept”.
